Assay results as given in BindingDB's records for doi:10.1016/j.ejmech.2020.112655 (University of Michigan, 2020).
Bridge positions count the residues as written; N and C are the ends. Peptide text beside a SMILES is read from it.

Target: Eukaryotic translation initiation factor 4E (Homo sapiens, UniProt P06730)
Assay: Binding affinity to recombinant human 10His-tagged eIF4E expressed in Escherichia coli BL21 (DE3) cells assessed as dissociation constant by surface plasmon resonance analysis

Sequence of Eukaryotic translation initiation factor 4E (P06730 whole entry): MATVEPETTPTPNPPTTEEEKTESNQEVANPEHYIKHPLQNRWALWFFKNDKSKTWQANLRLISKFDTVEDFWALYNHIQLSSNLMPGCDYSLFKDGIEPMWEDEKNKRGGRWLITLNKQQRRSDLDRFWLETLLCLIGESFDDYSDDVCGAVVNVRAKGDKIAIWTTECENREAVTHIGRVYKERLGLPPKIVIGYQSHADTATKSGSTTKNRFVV

| SMILES | koff [s⁻¹] |
| --- | --- |
| CC[C@H](C)[C@H](NC(=O)[C@H](CCCNC(=N)N)NC(C)=O)C(=O)N[C@H](C(=O)N[C@@H](Cc1ccc(O)cc1)C(=O)N[C@@H](CC(=O)O)C(=O)N[C@@H](CCCNC(=N)N)C(=O)N[C@H]1CCCCNC(=O)CC[C@@H](C(=O)N[C@@H](CS)C(=O)N[C@@H](CCCNC(=N)N)C(N)=O)NC(=O)[C@H](CCSC)NC(=O)[C@H](CC(C)C)NC(=O)[C@H](Cc2ccccc2)NC1=O)[C@@H](C)CC (Ac-RIIYDRKFLMECR-NH2; lactam 7-11) | 0.0042 |
| CC[C@H](C)[C@H](NC(=O)[C@H](CCCNC(=N)N)NC(C)=O)C(=O)N[C@H](C(=O)N[C@@H](Cc1ccc(O)cc1)C(=O)N[C@@H](CC(=O)O)C(=O)N[C@@H](CCCNC(=N)N)C(=O)N[C@H]1CCC(=O)NCCCC[C@@H](C(=O)N[C@@H](CS)C(=O)N[C@@H](CCCNC(=N)N)C(N)=O)NC(=O)[C@H](CCSC)NC(=O)[C@H](CC(C)C)NC(=O)[C@H](Cc2ccccc2)NC1=O)[C@@H](C)CC (Ac-RIIYDREFLMKCR-NH2; lactam 7-11) | 0.0069 |
